According to patent US12371426B2, “Pyridazine derivatives as SMARCA2/4 degraders” (Aurigene Discovery Technologies Limited, priority 2018, dated 2025):

Tests used:
SMARCA2 = SMARCA2 (Homo sapiens, UniProt P51531); assay: SMARCA2 degradation in NCI-H838 cells by Western blot; type: cell-based; set-up: endogenous in cells; host or cells: NCI-H838 (ATCC CRL-5844); conditions: 16 hours
Experimental: Determination of SMARCA2 Degradation in NCI-1H838 Cells by Western Blot:
NCI-1H838 (ATCC CRL-5844) was plated in 6 well plates using complete RPMI-1640 media. Next day, compounds of present invention were added to cells from 10 mM stocks made in DMSO (Sigma Cat no. D2650). Each concentration of compound was tested with DMSO concentration not exceeding a final percentage of 0.3 in the cells. Cells were incubated with the compound for 16 hours followed by harvesting with 1× RIPA lysis buffer (Thermo Fischer, catalogue number #89900) containing protease inhibitor cocktail (Sigma catalogue number #P-8340). Equal amount of protein was loaded on SIDS PAGE gel for electrophoresis. Western blot was carried out for detection of SMARCA2 with antibody (Cell signaling technologies, catalogue number #11966). Beta Actin (Santa Cruz, catalogue number #69879) was used as loading control. Percentage of SMARCA2 degradation was calculated using formula % degradation=100−(normalized band intensity in treated sample/normalized band intensity in DMSO sample)*100”.
Selected compounds of the present invention were screened in the above mentioned assay procedures for determination of % SMARCA2 degradation at 100 nM and the results are summarized in below table 31.

NCI-H929 cells = assay: Anti proliferative activity in NCI-H929 cell line by Cell Titer Glo assay; type: cell-based; conditions: Homo sapiens, 72 h, 3 days compound incubation, CellTiter Glo, read-out: Anti-proliferative activity IC50 group (NCI-H929 cells)
Experimental: Determination of Anti Proliferative Activity of Compounds in NCI-H929 and NCI-H838 Cell Lines by Cell Titer Glo® (promega) assay:
NCI-H929 (ATCC CRL-9068) or NCI-H838 (ATCC CRL-5844) cells were seeded in 96 well plate flat black clear bottom plates (Corning, Cat. No 3904) using complete RPMI-1640 media. Next day, compounds listed in the present invention were added to cells from 10 mM stocks made in DMSO (Sigma Cat no. D2650). Each concentration of compound was tested in triplicate with DMSO concentration at a final percentage not exceeding 0.3 in the cells. After the compound incubation (3 days for H929 and 8 days for H838) assay was terminated using 50 μl of CellTiter Glo® reagent (Promega, Cat. no G7572). CellTiter Glo® Luminescent reagent determines the number of viable cells based on quantitation of ATP present which is an indicator of cell number and metabolic activity. Luminescence readings were taken in Victor-3 instrument. Percent inhibition of proliferation was calculated using formula, % inhibition=100−(luminescence value of test/luminescence value of DMSO control)*100. DMSO control (0%)=Cells in complete media with DMSO; blank=Media alone containing DMSO. IC50 was calculated using graph pad prism software.
Herein group “A” refers to IC50 value lower than 1 μM, “B” refers to IC50 value between 1-10 μM (both inclusive) and “C” refers to IC50 value higher than 10 μM or less than 50% activity at 10 μM.

Sequence of SMARCA2 (P51531 whole entry): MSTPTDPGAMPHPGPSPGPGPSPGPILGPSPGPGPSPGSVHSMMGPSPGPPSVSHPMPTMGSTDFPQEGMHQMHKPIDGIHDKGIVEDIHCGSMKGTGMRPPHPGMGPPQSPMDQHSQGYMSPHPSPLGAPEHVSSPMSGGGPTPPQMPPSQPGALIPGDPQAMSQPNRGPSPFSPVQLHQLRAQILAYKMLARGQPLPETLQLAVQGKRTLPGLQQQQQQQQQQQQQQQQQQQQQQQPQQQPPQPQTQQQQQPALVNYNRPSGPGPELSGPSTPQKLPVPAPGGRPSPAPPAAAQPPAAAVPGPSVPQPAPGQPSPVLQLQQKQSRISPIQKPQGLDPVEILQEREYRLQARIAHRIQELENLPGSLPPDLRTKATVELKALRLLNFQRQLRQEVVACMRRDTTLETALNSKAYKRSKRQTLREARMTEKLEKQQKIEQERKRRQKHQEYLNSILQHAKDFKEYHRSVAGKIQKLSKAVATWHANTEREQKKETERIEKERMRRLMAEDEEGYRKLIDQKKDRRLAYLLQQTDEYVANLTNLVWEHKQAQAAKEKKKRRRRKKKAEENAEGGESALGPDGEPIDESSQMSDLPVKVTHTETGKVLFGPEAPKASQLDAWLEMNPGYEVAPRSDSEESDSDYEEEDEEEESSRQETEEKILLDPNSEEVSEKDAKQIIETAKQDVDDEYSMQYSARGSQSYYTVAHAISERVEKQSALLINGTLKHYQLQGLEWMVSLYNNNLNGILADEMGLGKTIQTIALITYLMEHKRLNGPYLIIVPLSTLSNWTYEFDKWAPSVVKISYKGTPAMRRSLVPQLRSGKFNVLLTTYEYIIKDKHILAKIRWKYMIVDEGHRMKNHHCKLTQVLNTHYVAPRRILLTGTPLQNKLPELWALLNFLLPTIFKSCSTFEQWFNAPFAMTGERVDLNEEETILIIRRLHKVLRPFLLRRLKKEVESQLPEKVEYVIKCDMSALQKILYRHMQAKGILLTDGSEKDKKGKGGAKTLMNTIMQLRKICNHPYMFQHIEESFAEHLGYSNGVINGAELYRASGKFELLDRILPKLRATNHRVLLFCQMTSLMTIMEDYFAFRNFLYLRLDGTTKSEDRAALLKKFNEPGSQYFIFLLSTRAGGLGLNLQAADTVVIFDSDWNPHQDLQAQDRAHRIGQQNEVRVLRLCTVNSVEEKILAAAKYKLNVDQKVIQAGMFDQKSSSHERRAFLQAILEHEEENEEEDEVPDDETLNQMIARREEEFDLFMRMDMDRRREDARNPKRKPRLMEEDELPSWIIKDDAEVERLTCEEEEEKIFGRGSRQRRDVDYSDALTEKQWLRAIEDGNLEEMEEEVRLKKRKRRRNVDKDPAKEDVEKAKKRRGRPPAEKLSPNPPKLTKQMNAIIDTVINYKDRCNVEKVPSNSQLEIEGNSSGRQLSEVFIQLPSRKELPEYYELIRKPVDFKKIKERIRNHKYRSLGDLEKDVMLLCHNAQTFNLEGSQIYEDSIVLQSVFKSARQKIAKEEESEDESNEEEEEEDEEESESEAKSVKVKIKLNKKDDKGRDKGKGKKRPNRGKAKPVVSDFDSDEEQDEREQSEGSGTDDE

SMARCA2 @ 100 nM (% SMARCA2 degradation) (SMARCA2) [%]	IC50 (NCI-H929 cells) [µM]	Structure (SMILES)
13		Cc1ncsc1-c1ccc([C@H](C)NC(=O)[C@@H]2C[C@@H](O)CN2C(=O)[C@@H](NC(=O)OC2CCN(c3cc(-c4ccccc4O)nnc3N)CC2)C(C)(C)C)cc1 [Compound 80]
27		Cc1ncsc1-c1ccc([C@H](C)NC(=O)[C@@H]2C[C@@H](O)CN2C(=O)[C@@H](NC(=O)Cn2cc(-c3cc(-c4cccc(F)c4O)nnc3N)cn2)C(C)(C)C)cc1 [Compound 62, (2S,4R)-1-((S)-2-(2-(4-(3-amino-6-(3-fluoro-2-hydroxyphenyl)pyridazin-4-yl)-1H-pyrazol-1-yl)acetamido)-3,3-dimethylbutanoyl)-4-hydroxy-N—((S)-1-(4-(4-methylthiazol-5-yl)phenyl)ethyl)pyrrolidine-2-carboxamide]
12		CNC(=O)c1cc(N2CCN(CC(=O)N[C@H](C(=O)N3C[C@H](O)C[C@H]3C(=O)N[C@@H](C)c3ccc(-c4scnc4C)cc3)C(C)(C)C)CC2)c(N)nn1 [Compound 75, 6-amino-5-(4-(2-(((S)-1-((2S,4R)-4-hydroxy-2-(((S)-1-(4-(4-methylthiazol-5-yl)phenyl)ethyl)carbamoyl)pyrrolidin-1-yl)-3,3-dimethyl-1-oxobutan-2-yl)amino)-2-oxoethyl)piperazin-1-yl)-N-methylpyridazine-3-carboxamide]
21		Cc1ncsc1-c1ccc([C@H](C)NC(=O)[C@@H]2C[C@@H](O)CN2C(=O)[C@@H](NC(=O)CN2CCN(c3cc(C(N)=O)nnc3N)CC2)C(C)(C)C)cc1 [Compound 74, 6-amino-5-(4-(2-(((S)-1-((2S,4R)-4-hydroxy-2-(((S)-1-(4-(4-methylthiazol-5-yl)phenyl)ethyl)carbamoyl)pyrrolidin-1-yl)-3,3-dimethyl-1-oxobutan-2-yl)amino)-2-oxoethyl)piperazin-1-yl)pyridazine-3-carboxamide]
9		Cc1ncsc1-c1ccc([C@H](C)NC(=O)[C@@H]2C[C@@H](O)CN2C(=O)[C@@H](NC(=O)CC2CCN(c3cc(-c4cc(F)ccc4F)nnc3N)CC2)C(C)(C)C)cc1 [Compound 100]
	> 10	Cc1ncsc1-c1ccc(CNC(=O)[C@@H]2C[C@@H](O)CN2C(=O)[C@@H](NC(=O)CCCCCCC(=O)N2CCN(c3cc(-c4ccccc4O)nnc3N)CC2)C(C)(C)C)cc1 [Compound 34]
	< 1	Cc1ncsc1-c1ccc([C@H](C)NC(=O)[C@@H]2C[C@@H](O)CN2C(=O)[C@@H](NC(=O)CCCCCC(=O)N2CCN(c3cc(-c4ccccc4O)nnc3N)CC2)C(C)(C)C)cc1 [Compound 112]
	> 10	Nc1nnc(-c2ccccc2O)cc1N1CCC(NC(=O)CCCCCCC(=O)Nc2cccc3c2CN(C2CCC(=O)NC2=O)C3=O)CC1 (stereo not drawn) [Compound 17]
-11		Nc1nnc(-c2ccccc2O)cc1N1CCN(CCCC(=O)Nc2cccc3c2C(=O)N(C2CCC(=O)NC2=O)C3=O)CC1 (stereo not drawn) [Compound 70]
	1 to 10	Cc1ncsc1-c1ccc([C@H](C)NC(=O)[C@@H]2C[C@@H](O)CN2C(=O)[C@@H](NC(=O)CCCCCCC(=O)NC2CCN(c3cc(-c4ccccc4O)nnc3N)CC2)C(C)(C)C)cc1 [Compound 23]
94		Cc1ncsc1-c1ccc([C@H](C)NC(=O)[C@@H]2C[C@@H](O)CN2C(=O)[C@@H](NC(=O)CN2CCN(c3cc(-c4ccccc4O)nnc3N)CC2)C(C)(C)C)cc1.Cl [Compound 65, (2S,4R)-1-((S)-2-(2-(4-(3-amino-6-(2-hydroxyphenyl)pyridazin-4-yl)piperazin-1-yl)acetamido)-3,3-dimethylbutanoyl)-4-hydroxy-N—((S)-1-(4-(4-methylthiazol-5-yl)phenyl)ethyl)pyrrolidine-2-carboxamide hydrochloride]
12		Nc1nnc(-c2ccccc2O)cc1N1CCN(CCC(=O)Nc2cccc3c2C(=O)N(C2CCC(=O)NC2=O)C3=O)CC1 (stereo not drawn) [Compound 69]
	> 10	COC(=O)c1cc(N2CCN(CC(=O)N[C@H](C(=O)N3C[C@H](O)C[C@H]3C(=O)N[C@@H](C)c3ccc(-c4scnc4C)cc3)C(C)(C)C)CC2)c(N)nn1 [Compound 72, methyl 6-amino-5-(4-(2-(((S)-1-((2S,4R)-4-hydroxy-2-(((S)-1-(4-(4-methylthiazol-5-yl)phenyl)ethyl)carbamoyl)pyrrolidin-1-yl)-3,3-dimethyl-1-oxobutan-2-yl)amino)-2-oxoethyl)piperazin-1-yl)pyridazine-3-carboxylate]
9		Cc1ncsc1-c1ccc(C(NC(=O)[C@@H]2C[C@@H](O)CN2C(=O)[C@@H](NC(=O)CC2CCN(c3cc(-c4cccc(F)c4O)nnc3N)CC2)C(C)(C)C)C(F)(F)F)cc1 (single isomer, unassigned) [Compound 77]
	> 10	Cc1ncsc1-c1ccc(CNC(=O)[C@H]2C[C@H](O)CN2C(=O)[C@H](NC(=O)CCCCCCCCCC(=O)NC2CCN(c3cc(-c4ccccc4O)nnc3N)CC2)C(C)(C)C)cc1 [Compound 22]
74		Cc1ncsc1-c1ccc([C@H](C)NC(=O)[C@@H]2C[C@@H](O)CN2C(=O)[C@@H](NC(=O)CN2CCN(c3cc(-c4ccccc4N)nnc3N)CC2)C(C)(C)C)cc1 [Compound 93]
	> 10	Cc1ncsc1-c1ccc(CNC(=O)[C@@H]2C[C@@H](O)CN2C(=O)[C@@H](NC(=O)C2CCN(c3cc(-c4ccccc4O)nnc3N)CC2)C(C)(C)C)cc1 [Compound 5]
	1 to 10	Cc1ncsc1-c1ccc(CNC(=O)[C@@H]2C[C@@H](O)CN2C(=O)[C@@H](NC(=O)CCCCCCCCCC(=O)N2CCN(c3cc(-c4ccccc4O)nnc3N)CC2)C(C)(C)C)cc1 [Compound 35]
	> 10	Cc1ncsc1-c1ccc(CNC(=O)[C@@H]2C[C@@H](O)CN2C(=O)[C@@H](NC(=O)COCCNC(=O)C2CCN(c3cc(-c4ccccc4O)nnc3N)CC2)C(C)(C)C)cc1 [Compound 1, 1-(3-amino-6-(2-hydroxyphenyl)pyridazin-4-yl)-N-(2-(2-(((S)-1-((2S,4R)-4-hydroxy-2-((4-(4-methylthiazol-5-yl)benzyl)carbamoyl)pyrrolidin-1-yl)-3,3-dimethyl-1-oxobutan-2-yl)amino)-2-oxoethoxy)ethyl)piperidine-4-carboxamide]
	> 10	Nc1nnc(-c2ccccc2O)cc1N1CCC(C(=O)NCCOCC(=O)Nc2cccc3c2C(=O)N(C2CCC(=O)NC2=O)C3=O)CC1 (stereo not drawn) [Compound 6]
	> 10	Cc1ncsc1-c1ccc([C@H](C)NC(=O)[C@@H]2C[C@@H](O)CN2C(=O)[C@@H](NC(=O)CN2CCN(c3cc(-c4ccccc4Cl)nnc3N)CC2)C(C)(C)C)cc1 [Compound 89]
	> 10	Cc1ncsc1-c1ccc([C@H](C)NC(=O)[C@@H]2C[C@@H](O)CN2C(=O)[C@@H](NC(=O)CN2CCN(c3cc(Cl)nnc3N)CC2)C(C)(C)C)cc1 [Compound 50, (2S,4R)-1-((S)-2-(2-(4-(3-amino-6-chloropyridazin-4-yl)piperazin-1-yl)acetamido)-3,3-dimethylbutanoyl)-4-hydroxy-N—((S)-1-(4-(4-methylthiazol-5-yl)phenyl)ethyl)pyrrolidine-2-carboxamide]
	> 10	Nc1nnc(-c2ccccc2O)cc1N1CCN(C(=O)CCCCCCC(=O)Nc2cccc3c2C(=O)N(C2CCC(=O)NC2=O)C3=O)CC1 (stereo not drawn) [Compound 30]
26		Cc1ncsc1-c1ccc(C(NC(=O)[C@@H]2C[C@@H](O)CN2C(=O)[C@@H](NC(=O)CC2CCN(c3cc(-c4cccc(F)c4O)nnc3N)CC2)C(C)(C)C)C(F)(F)F)cc1 (single isomer, unassigned) [Compound 78]
